Test results taken from paper PMC8773473, “Lithocholic Acid Amides as Potent Vitamin D Receptor Agonists” (Biomolecules, 2022).
Where two headings read alike, the source gives them in different places.

T1: VDR (Homo sapiens, UniProt P11473)
T1 construct: expressed in transfected cells; host or cells: HEK293
T1 sequence (P11473 1-427): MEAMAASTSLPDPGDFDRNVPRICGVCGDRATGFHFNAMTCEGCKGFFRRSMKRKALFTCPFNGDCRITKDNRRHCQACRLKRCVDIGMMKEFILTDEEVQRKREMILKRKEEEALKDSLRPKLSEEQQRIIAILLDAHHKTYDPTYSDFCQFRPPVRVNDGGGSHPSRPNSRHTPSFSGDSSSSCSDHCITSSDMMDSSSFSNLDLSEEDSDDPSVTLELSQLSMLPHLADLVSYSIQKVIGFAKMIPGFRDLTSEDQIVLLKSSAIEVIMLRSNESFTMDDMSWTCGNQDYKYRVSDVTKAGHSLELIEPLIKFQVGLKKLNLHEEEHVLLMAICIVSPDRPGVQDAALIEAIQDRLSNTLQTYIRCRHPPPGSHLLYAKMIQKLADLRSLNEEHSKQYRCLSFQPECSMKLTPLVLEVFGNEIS

T2: rat VDR LBD (residues 116–423, Δ165–211) (rat, UniProt P13053 116-423, Δ165–211)
T2 construct: Cloned in pET14b; tag removed by thrombin digestion; also called rVDR LBD; source: Escherichia coli C41, purified (Ni-NTA, SP-Sepharose, thrombin digestion, gel filtration); not shown: His6, N-terminal, cleaved
T2 sequence (looked up): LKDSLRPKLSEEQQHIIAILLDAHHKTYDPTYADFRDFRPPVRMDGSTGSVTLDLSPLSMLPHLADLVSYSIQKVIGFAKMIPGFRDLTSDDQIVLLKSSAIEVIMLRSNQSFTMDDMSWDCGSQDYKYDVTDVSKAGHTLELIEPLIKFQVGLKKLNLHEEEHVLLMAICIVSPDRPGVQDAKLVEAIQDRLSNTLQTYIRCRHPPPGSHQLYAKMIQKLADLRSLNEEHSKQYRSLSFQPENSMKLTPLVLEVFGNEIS


How the values were obtained:
HL-60 cells = experiment: HL-60 cell differentiation-inducing assay (NBT reduction); type: cell-based, human; settings: for EC50: Homo sapiens, HL-60, 96 h, read-out: HL-60 Assay EC50
Protocol: The vitamin D activity of the synthesized lithocholic acid amide derivatives was evaluated in terms of cell differentiation-inducing activity toward human acute promyelocytic leukemia cell line HL-60 [12]. HL-60 cell differentiation was evaluated in terms of the ratio of nitroblue tetrazolium (NBT)-positive cells (Figure 3 and Table 1).
Control cells were treated with the same volume of ethanol alone. 1α,25(OH)2D3 was always assayed at the same time as a positive control. The cells were incubated at 37 °C under 5% CO2 in air for 4 days. The percentage of differentiated cells was determined by nitro-blue tetrazolium (NBT) reduction assay. […] The percentage of cells containing blue-black formazan was determined in a minimum of 200 cells. All experiments were done in triplicate.

VDR = biological target: T1, VDR; experiment: VDR transactivation assay (luciferase reporter) in HEK293 cells; type: cell-based
Protocol: Human embryonic kidney HEK293 cells (RIKEN Cell Bank, Tsukuba, Japan) were cultured in Dulbecco’s modified Eagle’s medium containing 5% FBS, 100 U/mL penicillin, and 0.1 mg/mL streptomycin (Nacalai Tesque, Kyoto, Japan). Transfections used 15 ng of pCMX-hVDR, 50 ng of TK-Spp × 3-LUC reporter plasmid, and 10 ng of pCMX-β-galactosidase for each well of a 96-well plate, and were performed by the calcium phosphate coprecipitation assay as described previously. Eight hours after transfection, test compounds were added. Cells were harvested after 16–24 h and were assayed for luciferase and β-galactosidase activity using a luminometer and a microplate reader (Molecular Devices, Sunnyvale, CA, USA). Luciferase data were normalized to the internal β-galactosidase control. All experiments were done in triplicate.

[1] = design: method as in PMID 33853023; settings: cited from earlier work
[2] = preliminary pharmacokinetics in mice (data not shown); type: in vivo; settings: preliminary results
[3] = biological target: T2, rat VDR LBD (residues 116–423, Δ165–211); experiment: crystal structure; VDR LBD with about 10 equiv of ligand 7b and coactivator peptide (25 mM Tris-HCl, pH 8.0; 50 mM NaCl; 10 mM DTT; 0.02% NaN3); vapor diffusion, 0.2 M potassium citrate tribasic monohydrate, 20% (w/v) PEG3350, 20 °C; 1.94 Å; settings: both partners purified
[4] = HEK293 cells transfected with pCMX-hVDR and TK-Spp×3-LUC reporter, 'Inactive' = no or week active at the concentrations below 1 μM
[5] = ratio of NBT-positive cells, 4 days incubation, 'Inactive' = no or week active at the concentrations below 1 μM

Molecule	EC50 (VDR; [4]) [nM]	EC50 (HL-60 cells; [5]) [nM]	also measured
C=C1/C(=C\C=C2/CCC[C@]3(C)[C@@H]([C@H](C)CCCC(C)(C)O)CC[C@@H]23)C[C@@H](O)C[C@@H]1O [1α,25(OH)2D3 (1), 1α,25-Dihydroxyvitamin D3, reference compound]	–	–	EC50 (HL-60 cells): 0.74 nM
C[C@H](CCC(=O)O)[C@H]1CC[C@H]2[C@@H]3CC[C@@H]4C[C@H](CC(C)(C)O)CC[C@]4(C)[C@H]3CC[C@]12C [Compound 3]	0.083	1.01	calcemic activity compared with 1α,25(OH)2D3 (1) [1]: lower calcemic activity than 1; calcemic activity compared with 1α,25(OH)2D3 (1) ([1]; listed as 3 (Dcha-20)): lower calcemic activity; elimination from the serum [2]: eliminated very quickly
C[C@H](CCC(N)=O)[C@H]1CC[C@H]2[C@@H]3CC[C@@H]4C[C@H](CC(C)(C)O)CC[C@]4(C)[C@H]3CC[C@]12C [Compound 4a]	0.12	0.44	–
CNC(=O)CC[C@@H](C)[C@H]1CC[C@H]2[C@@H]3CC[C@@H]4C[C@H](CC(C)(C)O)CC[C@]4(C)[C@H]3CC[C@]12C [Compound 4b]	0.96	–	HL-60 Assay EC50 (HL-60 cells; [5]): Inactive ^a
C[C@H](CCC(=O)NO)[C@H]1CC[C@H]2[C@@H]3CC[C@@H]4C[C@H](CC(C)(C)O)CC[C@]4(C)[C@H]3CC[C@]12C [Compound 5a]	0.14	1.18	–
CONC(=O)CC[C@@H](C)[C@H]1CC[C@H]2[C@@H]3CC[C@@H]4C[C@H](CC(C)(C)O)CC[C@]4(C)[C@H]3CC[C@]12C [Compound 5b]	0.14	1.45	–
C[C@H](CCC(=O)NC#N)[C@H]1CC[C@H]2[C@@H]3CC[C@@H]4C[C@H](CC(C)(C)O)CC[C@]4(C)[C@H]3CC[C@]12C [Compound 6]	0.1	0.32	–
C[C@H](CCC(=O)NCC(=O)O)[C@H]1CC[C@H]2[C@@H]3CC[C@@H]4C[C@H](CC(C)(C)O)CC[C@]4(C)[C@H]3CC[C@]12C [Compound 7a]	–	2.03	–
C[C@H](CCC(=O)NCCC(=O)O)[C@H]1CC[C@H]2[C@@H]3CC[C@@H]4C[C@H](CC(C)(C)O)CC[C@]4(C)[C@H]3CC[C@]12C [Compound 7b]	0.89	0.45	–
C[C@H](CCC(=O)NCCCC(=O)O)[C@H]1CC[C@H]2[C@@H]3CC[C@@H]4C[C@H](CC(C)(C)O)CC[C@]4(C)[C@H]3CC[C@]12C [Compound 7c]	0.081	0.64	–
C[C@H](CCC(=O)NCS(=O)(=O)O)[C@H]1CC[C@H]2[C@@H]3CC[C@@H]4C[C@H](CC(C)(C)O)CC[C@]4(C)[C@H]3CC[C@]12C [Compound 8a]	–	18.5	–
C[C@H](CCC(=O)NCCS(=O)(=O)O)[C@H]1CC[C@H]2[C@@H]3CC[C@@H]4C[C@H](CC(C)(C)O)CC[C@]4(C)[C@H]3CC[C@]12C [Compound 8b]	–	6.56	–
C[C@H](CCC(=O)O)[C@H]1CC[C@H]2[C@@H]3CC[C@@H]4C[C@H](O)CC[C@]4(C)[C@H]3CC[C@]12C [LCA (2), Lithocholic acid]	–	–	Transactivation Assay EC50 (VDR; [4]): Inactive ^a; VDR transactivation activity (in words) (VDR; HEK293 cells, LCA: at the concentration below 1 μM): did not show the activity; HL-60 Assay EC50 (HL-60 cells; [5]): Inactive ^a
H-KNHPMLMNLLKDN-NH2 (also called MED1 peptide; source: synthetic peptide) [coactivator peptide (H2N-KNHPMLMNLLKDN-CONH2) derived from DRIP205]	–	–	binding result [3]: binds
